In ChEMBL document CHEMBL1201862, “PubChem BioAssay data set” (2004):
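How tested: cells in 96-well plates exposed to compound for 48 hours at five concentrations. Here, GI50 denotes the concentration required for 50% inhibition of growth.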 Calls of active or inactive are those of the source. Cut-off read from the data, not from the text of the source: active = GI50 up to about 1.1 µM and inactive = higher.

How the values were obtained:
Test in all cases: NCI anticancer screen, dose series, 48 h
SR = system: SR
HOP-62 = system: HOP-62
ACHN = system: ACHN
Hs-578T = system: Hs-578T
OVCAR-3 = system: OVCAR-3
K562 = system: K562
MCF7 = system: MCF7
UACC-257 = system: UACC-257
NCI-H226 = system: NCI-H226
TK-10 = system: TK-10
RPMI-8226 = system: RPMI-8226
DU-145 = system: DU-145
OVCAR-4 = system: OVCAR-4
IGROV-1 = system: IGROV-1
KM12 = system: KM12
CCRF-CEM = system: CCRF-CEM
U-251 = system: U-251
OVCAR-5 = system: OVCAR-5
UACC-62 = system: UACC-62
MOLT-4 = system: MOLT-4
SNB-75 = system: SNB-75
OVCAR-8 = system: OVCAR-8
HOP-92 = system: HOP-92
NCI/ADR-RES = system: NCI/ADR-RES
M14 = system: M14
NCI-H23 = system: NCI-H23
SF-268 = system: SF-268
HT-29 = system: HT-29
SW-620 = system: SW-620
A498 = system: A498
HCT-15 = system: HCT-15
SK-OV-3 = system: SK-OV-3
SN12C = system: SN12C
SF-295 = system: SF-295
MDA-MB-435 = system: MDA-MB-435
HCT-116 = system: HCT-116
A549 = system: A549
786-0 = system: 786-0
MDA-MB-231 = system: MDA-MB-231
LOX IMVI = system: LOX IMVI
COLO 205 = system: COLO 205
PC-3 = system: PC-3
MDA-N = system: MDA-N
Malme-3M = system: Malme-3M
SK-MEL-5 = system: SK-MEL-5
EKVX = system: EKVX
SK-MEL-2 = system: SK-MEL-2
UO-31 = system: UO-31
SK-MEL-28 = system: SK-MEL-28
SNB-19 = system: SNB-19
NCI-H522 = system: NCI-H522
CAKI-1 = system: CAKI-1
HL-60 = system: HL-60
RXF 393 = system: RXF 393
SF-539 = system: SF-539
HCC 2998 = system: HCC 2998
T47D = system: T47D

Measured: GI50

Cc1ccc(/C=C2\NC(=S)N(CN3CCOCC3)C2=O)cc1
inactive: SR > 100 µM | HOP-62 > 100 µM | ACHN > 100 µM | Hs-578T > 100 µM | OVCAR-3 > 100 µM | K562 > 100 µM | MCF7 66.5 µM | UACC-257 > 100 µM | NCI-H226 > 100 µM | TK-10 > 100 µM | RPMI-8226 > 100 µM | DU-145 > 100 µM | OVCAR-4 > 100 µM | IGROV-1 > 100 µM | KM12 > 100 µM | CCRF-CEM > 100 µM | U-251 > 100 µM | OVCAR-5 > 100 µM | UACC-62 > 100 µM | MOLT-4 > 100 µM | SNB-75 > 100 µM | OVCAR-8 > 100 µM | HOP-92 > 100 µM | NCI/ADR-RES > 100 µM | M14 > 100 µM | NCI-H23 > 100 µM | SF-268 > 100 µM | HT-29 > 100 µM | SW-620 > 100 µM | A498 > 100 µM | SK-OV-3 > 100 µM | SN12C > 100 µM | SF-295 > 100 µM | MDA-MB-435 > 100 µM | HCT-116 > 100 µM | A549 > 100 µM | 786-0 > 100 µM | MDA-MB-231 > 100 µM | LOX IMVI > 100 µM | COLO 205 > 100 µM | PC-3 > 100 µM | MDA-N > 100 µM | Malme-3M > 100 µM | SK-MEL-5 > 100 µM | EKVX > 100 µM | SK-MEL-2 > 100 µM | UO-31 > 100 µM | SK-MEL-28 > 100 µM | SNB-19 > 100 µM
> 100 µM: HCT-15

CN1CN(c2ccccc2)C2(CCN(CCCC(=O)c3cccs3)CC2)C1=O
inactive: SR 53.5 µM | HOP-62 19.3 µM | ACHN 40.2 µM | OVCAR-3 37.2 µM | K562 38.5 µM | MCF7 25.2 µM | NCI-H522 > 100 µM | CAKI-1 33.1 µM | UACC-257 29 µM | NCI-H226 34.5 µM | TK-10 27.7 µM | RPMI-8226 29.8 µM | DU-145 36.6 µM | IGROV-1 41.3 µM | KM12 75.7 µM | CCRF-CEM 30.3 µM | U-251 45.7 µM | OVCAR-5 35.9 µM | UACC-62 > 100 µM | HL-60 52.8 µM | MOLT-4 32.8 µM | SNB-75 > 100 µM | OVCAR-8 55.8 µM | NCI/ADR-RES 41 µM | M14 95.5 µM | NCI-H23 51.2 µM | SF-268 74.8 µM | RXF 393 > 100 µM | HT-29 21.2 µM | SW-620 42.2 µM | SK-OV-3 38.4 µM | SN12C 48.4 µM | SF-295 33 µM | HCT-116 30.1 µM | A549 29.3 µM | 786-0 35.6 µM | SF-539 23.8 µM | MDA-MB-231 50.9 µM | LOX IMVI 47.1 µM | COLO 205 17.3 µM | PC-3 94.8 µM | MDA-N 68.7 µM | Malme-3M 54.1 µM | SK-MEL-5 22.9 µM | EKVX 31.5 µM | HCC 2998 19.5 µM | T47D 29 µM | UO-31 33 µM | SK-MEL-28 > 100 µM | SNB-19 47.5 µM
34.7 µM: HCT-15
